{"source": "patent EP1948196B1", "about": "“USE OF TETRAORGANOSILICON COMPOUNDS” (Salama, Zoser B., priority 2005, dated 2007)", "key": {"[1]": {"test_system": "Entero-Viren", "assay": "Antiviral effect", "conditions": "in particular as vesicles holding antisense constructs"}, "[2]": {"test_system": "Lymphome", "assay": "Effect on lymphomas"}, "[3]": {"test_system": "HIV-Vren", "assay": "Antiviral effect", "conditions": "in particular as vesicles holding antisense constructs"}, "[4]": {"test_system": "Medulloblastome", "assay": "Effect on medulloblastomas"}, "[5]": {"test_system": "Krebszellen", "assay": "Effect of sugar silanes on cancer cells", "type": "cell-based"}, "[6]": {"test_system": "Osteosarkomen", "assay": "Antimetastatic effect in rats", "type": "in vivo", "conditions": "in Ratten"}, "[7]": {"test_system": "Kälber-Aortenendothelzellinie BKEz-7", "assay": "Neutral red vitality test", "type": "cell-based", "conditions": "compared with the cytotoxicity test", "protocol": "Als Marker für eine zytotoxische Wirkung wird bei Zellen der charakterisierten Kälber-Aortenendothelzellinie BKEz-7 die Hemmkonzentration ermittelt, bei der eine 50%-ige Hemmung der Zellproliferation erfolgt (im Vergleich zu Kontrollkulturen ohne Zusatz eines Zellinhibitors). Die resultierende Reduzierung der Zellzahl um 50% wird als IC 50 ausgedrückt. Die getesteten Silanverbindungen wurden als Suspensionen auf die Kulturen gegeben und 48 Stunden bei 37°C inkubiert. Zusätzlich erfolgten morphologische Kontrollen und Vitalitätsbestimmungen mittels dem Neutralrot-Test. Mit Ausnahme des Di(dodecanoyloxy)dimethylsilans standen alle Ergebnisse der morphologischen Untersuchungen in guter Übereinstimmung. […]"}, "[8]": {"test_system": "Maus", "assay": "Pharmacological observation in the mouse (central, vegetative and toxic effects, acute toxicity)", "type": "in vivo", "method_in_brief": "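Mice given single doses of 5·10^-4, 1·10^-3 and 5·10^-3 mol/kg body weight and observed individually. Recorded: orienting lethal dose (oLD), motor activity, reactivity, skin and rectal temperature, and pupil motility.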"}, "[9]": {"test_system": "Osteosarkome", "assay": "Effect on osteosarcomas"}, "[10]": {"test_system": "Kälber-Aortenendothelzellinie BKEz-7", "assay": "tissue or blood", "type": "cell-based"}, "[11]": {"test_system": "Seminome"}, "[12]": {"test_system": "Entero-Viren", "assay": "Antiviral effect", "conditions": "in particular as vesicles holding antisense constructs", "remark": "listed apart in the source"}, "[13]": {"test_system": "Medulloblastome", "assay": "Effect on medulloblastomas", "remark": "listed apart in the source"}, "[14]": {"test_system": "Basalzellkarzinome", "assay": "Effect on basal cell carcinomas"}, "[15]": {"test_system": "Adenokarzinome", "assay": "Effect on adenocarcinomas"}, "[16]": {"test_system": "Plasmozyten", "assay": "Effect against plasmocytes"}, "[17]": {"test_system": "Hepatitis A-Viren", "assay": "Antiviral effect", "conditions": "in particular as vesicles holding antisense constructs"}, "[18]": {"test_system": "Plattenepithelkarzinome", "assay": "Effect on squamous cell carcinomas"}}, "note": "Like-named read-outs stand apart in the source and are kept apart here. Numbered stars: 1 amine (or outer) side, 2 acyl side, 3 side chain; on linkers, the order of the positions; unused ones are H or OH. Bridge positions count the residues as written; N and C are the ends. Peptide text beside a SMILES is read from it. I, II: the chains in the order shown. OSi(nPr)2O = CCC[Si](CCC)(O[*:1])O[*:2]; X1 = C[Si](C)(O[*:1])O[*:2]"}
{"smiles": "CCCCCCCC/C=C\\CCCCCCCC(=O)O[Si](OC(=O)CCCCCCC/C=C\\CCCCCCCC)(C(C)C)C(C)C", "values": [{"measurement": "Wirkung gegen Entero-Viren", "setting": "[1]", "result": "zeigen eine Wirkung"}, {"measurement": "Wirkung auf Lymphome", "setting": "[2]", "result": "zeigen eine Wirkung"}, {"measurement": "Wirkung gegen HIV-Vren", "setting": "[3]", "result": "zeigen eine Wirkung"}, {"measurement": "Wirkung gegen Medulloblastome", "setting": "[4]", "result": "zeigen eine Wirkung"}]}
{"smiles": "CCCCCCCCCCCCCCCCCC[Si](C)(C)O[C@@H]1O[C@H](COC(C)=O)[C@@H](OC(C)=O)[C@H](OC(C)=O)[C@H]1OC(C)=O", "note": "[1-O-Dimethyl(octadecyl)silyl-2,3,4,6-tetr'a-0-acteyl-ß-D-glucopyranosid]", "values": [{"measurement": "Wirkung auf Krebszellen", "setting": "[5]", "result": "zeigen ebenfalls eine Wirkung"}]}
{"smiles": "CCCCCCCCCC(=O)O[Si](OC(=O)CCCCCCCCC)(C(C)C)C(C)C", "note": "[Di(decanoyloxy)diisopropylsilan]", "values": [{"measurement": "antimetastasierende Wirkung bei Osteosarkomen", "setting": "[6]", "result": "zeigen eine antimetastasierende Wirkung"}]}
{"smiles": "CCCCCCCCCCCC(=O)O[Si](C)(C)OC(=O)CCCCCCCCCCC", "note": "[Di(dodecanoyloxy)dimethylsilan]", "values": [{"measurement": "Vitalitätsbeeinflussungen im Neutralrot-Test", "setting": "[7]", "result": "geringere Vitalitätsbeeinflussungen als im Zytotoxizitätstest"}, {"measurement": "zentrale, vegetative und toxische Effekte (Verhaltensänderungen)", "setting": "[8]; 1•10^-3 mol/kg", "result": "keine Verhaltensänderungen"}, {"measurement": "zentrale, vegetative und toxische Effekte (Verhaltensänderungen)", "setting": "[8]; 5•10^-3 mol/kg", "result": "Ataxie, Ploerektion, Griffstärkesenkung"}, {"measurement": "zentrale, vegetative und toxische Effekte (Verhaltensänderungen)", "setting": "[8]; 5•10^-4 mol/kg", "result": "keine Verhaltensänderungen"}, {"measurement": "Wirkung auf Osteosarkome", "setting": "[9]", "result": "zeigen eine Wirkung"}, {"measurement": "Bedenkliche Toxizität", "setting": "[10]", "result": "-"}, {"measurement": "IC50", "setting": "[10]; suspensions, 48 Stunden bei 37°C", "result": 129, "unit": "µM"}]}
{"smiles": "CC/C=C\\C/C=C\\C/C=C\\CCCCCCCC(=O)O[Si](OC(=O)CCCCCCC/C=C\\C/C=C\\C/C=C\\CC)(C(C)C)C(C)C", "note": "[Di(linolenoylooxy) diisopropylsilan]", "values": [{"measurement": "Wirkung auf Lymphome", "setting": "[2]", "result": "zeigen eine Wirkung"}, {"measurement": "Wirkung gegen HIV-Vren", "setting": "[3]", "result": "zeigen eine Wirkung"}]}
{"smiles": "CCCCC/C=C\\C/C=C\\CCCCCCCC(=O)O[Si](OC(=O)CCCCCCC/C=C\\C/C=C\\CCCCC)(C(C)C)C(C)C", "note": "[Di(linoylooxy)diisopropylsilan]", "values": [{"measurement": "Wirkung auf Lymphome", "setting": "[2]", "result": "zeigen eine Wirkung"}, {"measurement": "Wirkung gegen HIV-Vren", "setting": "[3]", "result": "zeigen eine Wirkung"}]}
{"smiles": "CCCCCCCCC(=O)O[Si](OC(=O)CCCCCCCC)(C(C)C)C(C)C", "note": "[Di(nonanoyloxy)diisopropylsilan]", "values": [{"measurement": "antimetastasierende Wirkung bei Osteosarkomen", "setting": "[6]", "result": "zeigen eine antimetastasierende Wirkung"}]}
{"smiles": "CCCCCCCCCCC(=O)O[Si](OC(=O)CCCCCCCCCC)(C(C)C)C(C)C", "note": "[Di(undecanoyloxy)diisopropysilan]", "values": [{"measurement": "antimetastasierende Wirkung bei Osteosarkomen", "setting": "[6]", "result": "zeigen eine antimetastasierende Wirkung"}]}
{"smiles": "CC[Si](CC)(OC(=O)[C@@H](NC(=O)[C@@H](NC(=O)[C@@H](N)C(C)C)C(C)C)C(C)C)OC(=O)[C@@H](NC(=O)[C@@H](NC(=O)[C@@H](N)C(C)C)C(C)C)C(C)C", "note": "[Diethyl bis(trivalyl)silylester]", "values": [{"measurement": "Wirkung auf Seminome", "setting": "[11]", "result": "zeigen eine Wirkung"}]}
{"smiles": "C[Si](C)(OC(=O)CNC(=O)CNC(=O)CNC(=O)CNC(=O)CNC(=O)CNC(=O)CNC(=O)CN)OC(=O)CNC(=O)CNC(=O)CNC(=O)CNC(=O)CNC(=O)CNC(=O)CNC(=O)CN", "note": "[Dimethyl bis(octaglycyl)silylester] (I: H-GGGGGGGG / II: H-GGGGGGGG; linker I:C-II:C via X1)", "values": [{"measurement": "Wirkung gegen Entero-Viren", "setting": "[12]", "result": "zeigen eine Wirkung"}, {"measurement": "Wirkung gegen Medulloblastome", "setting": "[13]", "result": "zeigen eine Wirkung"}]}
{"smiles": "C[Si](C)(OC(=O)CNC(=O)CNC(=O)CNC(=O)CNC(=O)CN)OC(=O)CNC(=O)CNC(=O)CNC(=O)CNC(=O)CN", "note": "[Dimethyl bis(pentaglycyl)silylester]", "values": [{"measurement": "Wirkung gegen Entero-Viren", "setting": "[12]", "result": "zeigen eine Wirkung"}, {"measurement": "Wirkung gegen Medulloblastome", "setting": "[13]", "result": "zeigen eine Wirkung"}]}
{"smiles": "C[Si](C)(OC(=O)[C@H](Cc1ccccc1)NC(=O)[C@H](Cc1ccccc1)NC(=O)[C@H](Cc1ccccc1)NC(=O)[C@H](Cc1ccccc1)NC(=O)[C@@H](N)Cc1ccccc1)OC(=O)[C@H](Cc1ccccc1)NC(=O)[C@H](Cc1ccccc1)NC(=O)[C@H](Cc1ccccc1)NC(=O)[C@H](Cc1ccccc1)NC(=O)[C@@H](N)Cc1ccccc1", "note": "[Dimethyl bis(pentaphenylalanyl)silylester]", "values": [{"measurement": "Wirkung auf Basalzellkarzinome", "setting": "[14]", "result": "zeigen eine Wirkung"}]}
{"smiles": "C[Si](C)(OC(=O)CNC(=O)CNC(=O)CNC(=O)CN)OC(=O)CNC(=O)CNC(=O)CNC(=O)CN", "note": "[Dimethyl bis(tetraglycyl)silylester]", "values": [{"measurement": "Wirkung gegen Entero-Viren", "setting": "[12]", "result": "zeigen eine Wirkung"}, {"measurement": "Wirkung gegen Medulloblastome", "setting": "[13]", "result": "zeigen eine Wirkung"}]}
{"smiles": "C[Si](C)(OC(=O)[C@H](Cc1ccccc1)NC(=O)[C@H](Cc1ccccc1)NC(=O)[C@H](Cc1ccccc1)NC(=O)[C@@H](N)Cc1ccccc1)OC(=O)[C@H](Cc1ccccc1)NC(=O)[C@H](Cc1ccccc1)NC(=O)[C@H](Cc1ccccc1)NC(=O)[C@@H](N)Cc1ccccc1", "note": "[Dimethyl bis(tetraphenylalanyl)slylester]", "values": [{"measurement": "Wirkung auf Basalzellkarzinome", "setting": "[14]", "result": "zeigen eine Wirkung"}]}
{"smiles": "CC(C)[C@H](N)C(=O)N[C@H](C(=O)N[C@H](C(=O)N[C@H](C(=O)O[Si](C)(C)OC(=O)[C@@H](NC(=O)[C@@H](NC(=O)[C@@H](NC(=O)[C@@H](N)C(C)C)C(C)C)C(C)C)C(C)C)C(C)C)C(C)C)C(C)C", "note": "[Dimethyl bis(tetravalyl)silylester]", "values": [{"measurement": "Wirkung auf Adenokarzinome", "setting": "[15]", "result": "zeigen eine Wirkung"}]}
{"smiles": "C[Si](C)(OC(=O)CNC(=O)CNC(=O)CN)OC(=O)CNC(=O)CNC(=O)CN", "note": "[Dimethyl bis(triglycyl)silylester]", "values": [{"measurement": "Wirkung gegen Entero-Viren", "setting": "[12]", "result": "zeigen eine Wirkung"}, {"measurement": "Wirkung gegen Medulloblastome", "setting": "[13]", "result": "zeigen eine Wirkung"}]}
{"smiles": "C[Si](C)(OC(=O)[C@H](Cc1ccccc1)NC(=O)[C@H](Cc1ccccc1)NC(=O)[C@@H](N)Cc1ccccc1)OC(=O)[C@H](Cc1ccccc1)NC(=O)[C@H](Cc1ccccc1)NC(=O)[C@@H](N)Cc1ccccc1", "note": "[Dimethyl bis(triphenylalanyl)silylester]", "values": [{"measurement": "Wirkung auf Basalzellkarzinome", "setting": "[14]", "result": "zeigen eine Wirkung"}]}
{"smiles": "CC(C)[C@H](N)C(=O)N[C@H](C(=O)N[C@H](C(=O)O[Si](C)(C)OC(=O)[C@@H](NC(=O)[C@@H](NC(=O)[C@@H](N)C(C)C)C(C)C)C(C)C)C(C)C)C(C)C", "note": "[Dimethyl bis(trivalyl)silylester]", "values": [{"measurement": "Wirkung auf Adenokarzinome", "setting": "[15]", "result": "zeigen eine Wirkung"}]}
{"smiles": "CCC[Si](CCC)(OC(=O)[C@H](Cc1ccccc1)NC(=O)[C@H](Cc1ccccc1)NC(=O)[C@H](Cc1ccccc1)NC(=O)[C@H](Cc1ccccc1)NC(=O)[C@H](Cc1ccccc1)NC(=O)[C@H](Cc1ccccc1)NC(=O)[C@@H](N)Cc1ccccc1)OC(=O)[C@H](Cc1ccccc1)NC(=O)[C@H](Cc1ccccc1)NC(=O)[C@H](Cc1ccccc1)NC(=O)[C@H](Cc1ccccc1)NC(=O)[C@H](Cc1ccccc1)NC(=O)[C@H](Cc1ccccc1)NC(=O)[C@@H](N)Cc1ccccc1", "note": "[Dipropyl bis(heptaphenylalanyl)silylester] (I: H-FFFFFFF / II: H-FFFFFFF; linker I:C-II:C via OSi(nPr)2O)", "values": [{"measurement": "Wirkung gegen Plasmozyten", "setting": "[16]", "result": "zeigen eine Wirkung"}, {"measurement": "Wirkung gegen Hepatitis A-Viren", "setting": "[17]", "result": "zeigen eine Wirkung"}]}
{"smiles": "CCC[Si](CCC)(OC(=O)[C@H](C)NC(=O)[C@H](C)NC(=O)[C@H](C)NC(=O)[C@H](C)N)OC(=O)[C@H](C)NC(=O)[C@H](C)NC(=O)[C@H](C)NC(=O)[C@H](C)N", "note": "[Dipropyl bis(tetraalanyl)silylester] (I: H-AAAA / II: H-AAAA; linker I:C-II:C via OSi(nPr)2O)", "values": [{"measurement": "Wirkung gegen Plattenepithelkarzinome", "setting": "[18]", "result": "zeigen eine Wirkung"}]}
{"smiles": "CCCCCCCCCCCC[Si](C)(C)O[C@@H]1O[C@H](COC(C)=O)[C@@H](OC(C)=O)[C@H](OC(C)=O)[C@H]1OC(C)=O", "note": "[Silan 12, 1-O-Dimethyl(dodecyl)silyl-2,3,4,6-tetra-0-acetyl-ß-D-glucopyrasonid]", "values": [{"measurement": "Wirkung auf Krebszellen", "setting": "[5]", "result": "zeigen ebenfalls eine Wirkung"}]}
